From publication PMC11364845 (Scientific Reports, 2024)

Experiments:
[1] = tested on: prostate tumor-bearing TRAMP mice; conditions: 30 min dynamic PET, n = 3/group
[2] = cited from earlier work

## OC[C@H]1OC(O)[C@H](F)[C@@H](O)[C@@H]1O (stereo partly drawn) [^18F-FDG, ^18F-fluorodeoxyglucose]
[1]
  Time-dependent blood distribution by dynamic PET: JV versus RO injection: consistent circulation
[2]; after cardiac administration
  Time to peak in circulation and distribute to half its concentration: ≤ 5 s
[2]
  Time to reach a plateau in tissues: ≤ 30 min
